# Key:
# PC3 = experiment: Cytotoxicity assay (propidium iodide), PC3; conditions: Homo sapiens, PC-3, 48 h, read-out: IC50 cytotoxicity
# MCF7 = experiment: Cytotoxicity assay (propidium iodide), MCF7; format: cell-based; conditions: Homo sapiens; MCF7 (C6c, breast); 48 hours
# Protocol: (§4) Cells from cell lines as mentioned in the table given below were seeded at a density of 3000 cells/well in a white opaque 96-well plate. Following incubation at 37° C./5% CO2 for a period of 18-24 hours, the cells were treated with various concentrations (stock solution was prepared in DMSO and subsequent dilutions were made in media as per ATCC guidelines) of the representative compounds of present invention (refer table 3) for a period of 48 hours. At the end of treatment, the spent culture medium was discarded, the cells were washed with 1×PBS and 200 μl of 7 μg/ml propidium iodide was added to each well. The plates were frozen at −70° C. for at least 24 hours. For analysis, the plates were brought to RT, allowed to thaw and were read in PolarStar fluorimeter with the fluorescence setting. The percentage of viable cells in the non treated set of wells was considered to be 100 and the percentage viability following treatment was calculated accordingly. IC50 values were calculated from graphs plotted using these percentages.
# mTOR = target: T1, mTOR (Homo sapiens, UniProt P42345); experiment: mTOR activity assay (cell ELISA, Phospho-AKT Ser 473, A2780 cells); format: cell-based; conditions: for inhibition at 1 µM: read-out: % Inhibition of mTOR activity at 1 μM
# T1 construct: endogenous in cells; host or cells: A2780 ovarian cell line (ATCC)
# Protocol: Seed cells (Ovarian cell line A2780, ATCC) were plated in a 96 well microtitre plate at a density of 50,000 cells/cm^2 in appropriate complete cell culture medium. The cells were allowed to adhere for 18-24 hours. The cells were allowed to starve for 24 hours. […] Then the cells were stimulated with 20% FCS for 30 minutes. A typical assay would consist of a set of unstimulated cells, a set of stimulated cells and a set of cells treated with compounds of present invention and a set of cells treated with the stimulator. The medium was discarded. The cells were fixed with 100 μL of 3.7% formaldehyde for 15 minutes. The formaldehyde was discarded by inverting the plate and tapping it on a thick tissue paper layer to remove traces. The cells were washed and permeabilized with 200 μL PBS+Triton-X 100 solution (hereafter referred to as PBS-Triton, containing 0.1% triton-X 100 in 1×PBS) three times, incubating the cells each time for 5 minutes. 100 μL blocking solution (10% FCS in PBS-Triton) was added and incubated for 1 hour at 25° C. The blocking solution was discarded and cells were incubated with the primary antibody in PBS-Triton at a dilution of 1:500 for 1 hour at RT (25° C.). [The primary antibody is Phospho-AKT (Ser 473); Cell Signaling; Cat. No. 9271]. The primary antibody solution was discarded and the cells were washed 3 times with PBS-Triton solution and incubated with the HRP-conjugated secondary antibody in PBS-Triton at a dilution of 1:500 for 1 hour at RT (25° C.). The cells were washed 3 times with PBS-Triton followed by two washes with PBS (to remove traces of triton-X 100). The OPD (o-phenylene diamine dihydrochloride) substrate was prepared for detection of the signal by dissolving one tablet set (two tablets) of SigmaFast OPD (Sigma, Cat No. P9187) in 20 mL distilled water. It should be protected from light. 100 μL OPD solutions was added to the wells and the plate was incubated in the dark for 3-5 minutes (depending upon the development of the color). The reaction was stopped by adding 50 μL 2 N H2SO4. The absorbance was measured at 490 nm. The values were expressed in the treated samples, in terms of percentage or fold decrease in AKT phosphorylation with respect to the induced sample. PI-103 (Calbiochem, USA) was used as a standard.
# PI3Kα kinase = target: T2, PI3Kα kinase (Homo sapiens, UniProt P42336); experiment: Kinase assay (PI3Kα); format: biochemical; conditions: read-out: IC50 (μM) for PI3K inhibition
# T2 construct: purchased Millipore, USA
# Summary of the method: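 Recombinant PI3Kα (20 ng) phosphorylated 12.5 μg phosphatidylinositol with 10 μM ATP and 1 μCi ^32γ P […] in 10 mM Hepes pH 7.5, 50 mM MgCl2 for 20 min at 30° C. Lipids were extracted with MeOH/CHCl3, resolved by TLC, and labelled PI quantified by autoradiography densitometry; PI-103 served as standard.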
# G361 = experiment: Cytotoxicity assay (propidium iodide), G361; format: cell-based; conditions: G-361; G361 (C9a, human melanoma); 48 hours
# Protocol: as §4
# A549 = experiment: Cytotoxicity assay (propidium iodide), A549; format: cell-based; conditions: Homo sapiens; A549 (C1a, lung); 48 hours
# MDA MB 468 = experiment: Cytotoxicity assay (propidium iodide), MDA MB 468; format: cell-based; conditions: Homo sapiens; MDA MB 468 (C6b, breast); 48 hours
# Protocol: as §4
# H460 = experiment: Cytotoxicity assay (propidium iodide), H460; format: cell-based; conditions: Homo sapiens, NCI-H460; H460 (C1b, lung); 48 hours
# BT 549 = experiment: Cytotoxicity assay (propidium iodide), BT 549; format: cell-based; conditions: Homo sapiens; BT 549 (C6d, breast); 48 hours
# Protocol: as §4
# IL-6 [1] = experiment: Human monocyte assay, LPS-stimulated IL-6; format: cell-based; conditions: Monocyte; human monocytes, 1 μg/ml LPS, 5 hours
# Summary of the method: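 Adherent human PBMC-derived monocytes (2×10^4/well) were cultured 48 h, preincubated 30 min with compound or 0.5% DMSO, then stimulated with 1 μg/ml E. coli LPS for 5 h at 37° C. TNF-α and IL-6 in supernatants were measured by ELISA.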
# A2780 = experiment: Cytotoxicity assay (propidium iodide), A2780; format: cell-based; conditions: Homo sapiens; A2780 (C3a, ovarian); 48 hours
# Protocol: as §4
# TNF-α = experiment: Synovial tissue assay, TNF-α; format: cell-based; conditions: Homo sapiens; synovial tissue cells from rheumatoid arthritis patients, 16 hours
# Protocol: (§1) The assay was designed as in the reference, Lancet, 2(8657), 244-7, Jul.
# (§2) Stock Solution: Compounds of the present invention were dissolved in DMSO to obtain a stock solution of 20 mM.
# (§3) Synovial tissue was obtained from rheumatoid arthritis patients undergoing knee replacement surgery. The tissue was minced into small pieces and digested in RPMI medium containing 100 U/ml penicillin-G, 100 μg/ml streptomycin, 50 ng/ml amphotericin B (GIBCO; USA), 1.33 mg/ml collagenase Type I (Worthington Biochemical Corporation, New Jersey), 0.5 μg/ml DNAse Type I (Sigma Aldrich; St. Louis, Mo.) and 8.33 U/ml heparin (Biological E. Limited, India) for 3 hours at 37° C., 5% CO2. The digested tissue was filtered through a membrane (mesh size 70 micron; Sigma Aldrich). Subsequently, the cells were washed 3 times and resuspended in complete medium (RPMI supplemented with 5% FBS and 5% human serum-AB+) at a concentration of 1×10^6 cells/ml. All cell washes in this assay were performed using Rosewall Park Memorial Institute (RPMI)-1640 medium (JRH; Australia). For the experiment, 100 μl of cell suspension was added to the wells of a 96-well culture plate. Following cell plating, 100 μl of the culture medium and 1 μl of various concentrations (0.01, 0.03, 0.1, 0.3, 1, 3, 10, 30 and 100 μM) of the compounds of present invention dissolved in DMSO were added to the cells. The final concentration of DMSO was adjusted to 0.5%. For experimental purposes, 1 μl of […] concentrated solution of the compounds of present invention were dissolved in 200 μl cell suspension to achieve a final concentration of 0.01, 0.03, 0.1, 0.3, 1, 3, 10, 30 and 100 μM. The vehicle (0.5% DMSO) was used as control. 10 μM dexamethasone (Sigma Aldrich) or 1 μM 7-hydroxyfluorinide (7HF) were used as standards for the experiments. The plates were incubated for 16 hours at 37° C., 5% CO2. Subsequently, the supernatants were harvested and stored at −70° C. The amounts of TNF-α, IL-6 and interleukin-8 (IL-8) in the supernatants were assayed using OptiEIA ELISA sets, (BD BioSciences Pharmingen). The protocol followed was as per manufacturers instructions. […] The cytotoxicity of test compounds in synovial cells was assessed by MTS assay. Absorbance was measured at 490 nm. Percent cytotoxicity was calculated by the equation: % Cytotoxicity=(A−B)/A×100 where, A is the absorbance of cells treated with DMSO alone and B is the absorbance of cells treated with the test article.
# STAT3 = STAT3 bioassay (Hela Stat3-luc, luciferase); format: cell-based; conditions: Homo sapiens, Oncostatin M induction
# Summary of the method: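 Hela Stat3-luc cells (20,000/well, 24 h) pretreated with compound 1 h, then induced with 100 ng/ml final Oncostatin M for 7-8 h at 37 °C. Luciferase luminescence after lysis; percent inhibition versus induction control, IC50 from these percentages.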
# IL-8 = experiment: Synovial tissue assay, IL-8; format: cell-based; conditions: Homo sapiens; synovial tissue cells from rheumatoid arthritis patients, 16 hours
# Protocol: as §1, §2, §3
# IL-6 [2] = experiment: Synovial tissue assay, IL-6; format: cell-based; conditions: Homo sapiens; synovial tissue cells from rheumatoid arthritis patients, 16 hours
# Protocol: as §1, §2, §3
# OVCAR 3 = experiment: Cytotoxicity assay (propidium iodide), OVCAR 3; format: cell-based; conditions: Homo sapiens; OVCAR 3 (C3c, ovarian); 48 hours
# Protocol: as §4
# SKOV3 = experiment: Cytotoxicity assay (propidium iodide), SKOV3; format: cell-based; conditions: Homo sapiens, SK-OV-3; SKOV3 (C3b, ovarian); 48 hours
# Protocol: as §4
# CAPAN1 = experiment: Cytotoxicity assay (propidium iodide), CAPAN1; format: cell-based; conditions: Homo sapiens, CAPAN-1; CAPAN1 (C5b, pancreatic); 48 hours
# Protocol: as §4
# PANC 1 = experiment: Cytotoxicity assay (propidium iodide), PANC 1; format: cell-based; conditions: Homo sapiens; PANC 1 (C5a, pancreatic); 48 hours
# Protocol: as §4
# MDA MB 231 = experiment: Cytotoxicity assay (propidium iodide), MDA MB 231; format: cell-based; conditions: Homo sapiens; MDA MB 231 (C6a, breast); 48 hours
# Protocol: as §4
# HT29 = experiment: Cytotoxicity assay (propidium iodide), HT29; format: cell-based; conditions: Homo sapiens, HT-29; HT29 (C4a, colon); 48 hours
# Protocol: as §4
# T2 sequence (P42336 whole entry): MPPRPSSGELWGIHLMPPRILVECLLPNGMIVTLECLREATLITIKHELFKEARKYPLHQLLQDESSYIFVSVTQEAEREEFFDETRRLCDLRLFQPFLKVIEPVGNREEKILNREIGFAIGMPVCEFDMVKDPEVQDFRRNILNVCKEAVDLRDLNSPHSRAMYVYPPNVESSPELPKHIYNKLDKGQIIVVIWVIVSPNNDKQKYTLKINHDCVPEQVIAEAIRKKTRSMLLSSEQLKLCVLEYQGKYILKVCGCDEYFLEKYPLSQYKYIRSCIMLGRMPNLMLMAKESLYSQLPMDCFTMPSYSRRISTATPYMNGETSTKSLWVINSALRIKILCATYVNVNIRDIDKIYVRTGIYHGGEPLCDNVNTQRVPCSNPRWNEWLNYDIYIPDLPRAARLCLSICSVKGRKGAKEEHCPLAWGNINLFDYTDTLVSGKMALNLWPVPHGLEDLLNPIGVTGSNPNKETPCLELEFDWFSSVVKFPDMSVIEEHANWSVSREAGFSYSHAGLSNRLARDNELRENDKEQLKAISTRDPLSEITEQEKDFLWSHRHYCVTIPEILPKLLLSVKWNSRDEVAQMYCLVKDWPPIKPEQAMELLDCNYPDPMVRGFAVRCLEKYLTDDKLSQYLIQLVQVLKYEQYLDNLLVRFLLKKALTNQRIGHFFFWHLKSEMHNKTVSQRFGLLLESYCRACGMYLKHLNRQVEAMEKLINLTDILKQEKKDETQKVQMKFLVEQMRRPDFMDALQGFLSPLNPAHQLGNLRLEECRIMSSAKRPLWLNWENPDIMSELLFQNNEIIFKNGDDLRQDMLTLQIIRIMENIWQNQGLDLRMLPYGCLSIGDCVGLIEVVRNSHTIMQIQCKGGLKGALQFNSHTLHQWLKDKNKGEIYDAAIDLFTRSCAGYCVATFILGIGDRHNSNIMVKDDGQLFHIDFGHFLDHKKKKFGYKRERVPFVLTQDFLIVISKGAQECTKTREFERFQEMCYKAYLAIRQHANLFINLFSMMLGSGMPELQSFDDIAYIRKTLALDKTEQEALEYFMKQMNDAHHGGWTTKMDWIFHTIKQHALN
# T2 sequence (P27986 whole entry partner): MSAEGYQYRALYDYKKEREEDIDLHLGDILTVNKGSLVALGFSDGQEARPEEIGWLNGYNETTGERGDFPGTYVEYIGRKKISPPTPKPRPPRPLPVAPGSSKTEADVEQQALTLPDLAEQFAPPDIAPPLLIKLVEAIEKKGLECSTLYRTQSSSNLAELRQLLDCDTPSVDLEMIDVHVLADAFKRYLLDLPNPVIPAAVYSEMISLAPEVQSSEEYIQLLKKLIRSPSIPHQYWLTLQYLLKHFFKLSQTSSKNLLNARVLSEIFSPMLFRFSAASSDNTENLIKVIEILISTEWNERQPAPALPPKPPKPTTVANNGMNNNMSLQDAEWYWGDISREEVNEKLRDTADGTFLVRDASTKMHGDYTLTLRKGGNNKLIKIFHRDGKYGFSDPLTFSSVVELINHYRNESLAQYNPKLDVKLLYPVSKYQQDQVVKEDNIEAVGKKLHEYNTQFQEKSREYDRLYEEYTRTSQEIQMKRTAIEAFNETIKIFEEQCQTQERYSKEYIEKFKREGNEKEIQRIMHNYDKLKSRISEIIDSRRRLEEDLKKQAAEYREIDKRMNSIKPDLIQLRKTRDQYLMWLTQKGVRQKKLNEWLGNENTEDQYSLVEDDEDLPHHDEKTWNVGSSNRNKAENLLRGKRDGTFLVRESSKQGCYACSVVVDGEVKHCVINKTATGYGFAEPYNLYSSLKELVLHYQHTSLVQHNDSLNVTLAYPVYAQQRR
IC50 (PI3Kα kinase) [µM],IC50 (IL-6 [1]) [µM],Compound,IC50 (PC3) [µM],IC50 (MCF7) [µM],IC50 (G361) [µM],IC50 (A549) [µM],IC50 (MDA MB 468) [µM],IC50 (H460) [µM],IC50 (A2780) [µM],further results
0.01 to 0.5,,"CN(N=Cc1cnc2ccc(-c3cccnc3)cn12)S(=O)(=O)c1cccc(Br)c1 [Example 7, 3-Bromo-N-methyl-N′-((6-(pyridine-3-yl)imidazo[1,2-a]pyridine-3-yl)methylene) benzenesulfonohydrazide]",> 5,> 5,> 5,> 5,> 5,> 5,,inhibition at 1 µM (mTOR): 30 to 50%
,0.001 to 5,"CN(N=Cc1cnc2ccc(-c3cccnc3)cn12)S(=O)(=O)c1ccccc1C#N [Example 9, 2-Cyano-N-methyl-N′-((6-(pyridine-3-yl)imidazo[1,2-a]pyridine-3-yl)methylene)benzenesulfonohydrazide]",0.01 to 5,,,0.01 to 5,0.01 to 5,0.01 to 5,0.01 to 5,IC50 (BT 549): 0.01 to 5 µM; IC50 (TNF-α): 0.01 to 0.3 µM; IC50 (STAT3): 5 to 10 µM; IC50 (IL-8): 0.3 to 3 µM; IC50 (IL-6 [2]): 0.01 to 0.3 µM
0.01 to 0.5,≥ 5,"CN(N=Cc1cnc2ccc(-c3cccnc3)cn12)S(=O)(=O)c1ccc(C#N)cc1 [Example 11, 4-Cyano-N-methyl-N′-((6-(pyridine-3-yl)imidazo[1,2-a]pyridine-3-yl)methylene)benzenesulfonohydrazide]",> 5,,,> 5,> 5,> 5,> 5,IC50 (BT 549): > 5 µM; inhibition at 1 µM (mTOR): 30 to 50%

# Continued, compound first:
Compound,IC50 (PI3Kα kinase) [µM],IC50 (IL-6 [1]) [µM],IC50 (PC3) [µM],IC50 (MCF7) [µM],IC50 (G361) [µM],IC50 (A549) [µM],IC50 (MDA MB 468) [µM],IC50 (H460) [µM],IC50 (A2780) [µM],further results
"CN(N=Cc1cnc2ccc(-c3cccnc3)cn12)S(=O)(=O)c1ccc(F)c(Cl)c1 [Example 18, 3-Chloro-4-fluoro-N-methyl-N′-((6-(pyridine-3-yl)imidazo[1,2-a]pyridine-3-yl)methylene) benzenesulfonohydrazide]",0.01 to 0.5,,> 5,> 5,> 5,> 5,> 5,> 5,,
"CN(N=Cc1cnc2ccc(-c3cccnc3)cn12)S(=O)(=O)c1c(F)cc(F)cc1Br [Example 26, 2-Bromo-4,6-difluoro-N-methyl-N′-((6-(pyridine-3-yl)imidazo[1,2-a]pyridine-3-yl)methylene) benzenesulfonohydrazide]",0.01 to 0.5,0.001 to 5,,,,0.01 to 5,,0.01 to 5,0.01 to 5,inhibition at 10 µM (mTOR; 10 μM): > 50%; IC50 (OVCAR 3): 0.01 to 5 µM; IC50 (SKOV3): 0.01 to 5 µM; IC50 (STAT3): 0.1 to 5 µM; IC50 (CAPAN1): 0.01 to 5 µM; IC50 (PANC 1): 0.01 to 5 µM
"Cc1cc(C)c(S(=O)(=O)N(C)N=Cc2cnc3ccc(-c4cccnc4)cn23)c(C)c1 [Example 27, N, 2,4,6-tetramethyl-N′-((6-(pyridine-3-yl)imidazo[1,2-a]pyridine-3-yl)methylene)benzenesulfonohydrazide]",0.01 to 0.5,,> 5,> 5,> 5,> 5,> 5,> 5,,
"CN(N=Cc1cnc2ccc(-c3cccnc3)cn12)S(=O)(=O)C1CCCCC1 [Example 31, N-methyl-N′-((6-(pyridine-3-yl)imidazo[1,2-a]pyridine-3-yl)methylene) cyclohexanesulfonohydrazide]",,,0.01 to 5,,,0.01 to 5,,0.01 to 5,0.01 to 5,IC50 (MDA MB 231): 0.01 to 5 µM; IC50 (HT29): > 5 µM
"Cc1ccc([N+](=O)[O-])cc1S(=O)(=O)N(C)N=Cc1cnc2ccc(-c3ccncc3)cn12 [Example 85, N, 2-dimethyl-5-nitro-N′-((6-(pyridine-4-yl)imidazo[1,2-a]pyridine-3-yl)methylene) benzenesulfonohydrazide]",,,0.01 to 5,,,0.01 to 5,,0.01 to 5,0.01 to 5,IC50 (MDA MB 231): 0.01 to 5 µM; IC50 (HT29): > 5 µM

# — US8741932B2, “Imidazopyridine derivatives” (Piramal Enterprises Limited, priority 2009, dated 2014)
